Experimental data: patent US20230301893A1, “Hair Growth and Scalp Preparations” (priority 2020, published 2023)
No end group written: not given here.

What was measured:
[1] = tested on: normal human vascular endothelial cells (NHVEC); assay: Boyden chamber migration assay; format: cell-based; conditions: for cell migration over migration in the presence of media alone / migration response compared to three positive controls (VEGF, PDGF, FGF): 100 ng/ml; for Cell Number per HPF, Chamber 1 / Cell Number per HPF, Chamber 2 / Cell Number per HPF, Chamber 3 / Cell Number per HPF, Mean: 5×10^4 cells per well
Method: The effects of TB4 and TA1 on endothelial cell migration were determined. To investigate the possibility that these peptides effect the migration of normal human vascular endothelial cells (NHVEC) in vitro, a Boyden chamber migration assay was performed.
In the experiments of Table 1 and FIG. 1, normal human microvesicular endothelial cells are used at 5×10^4 cells per well. The wells are coated with 100 µg/ml […] Type IV.

endothelial cells = assay: MTT (tetrazolium) endothelial cell proliferation assay; format: cell-based; conditions: 10 ng/ml; 4 hours and 24 hours tested
Method: The effects of TB4 and TA1 on endothelial cell proliferation were determined using a MTT (tetrazolium) assay. The results are shown in FIG. 2 for 4 hours and 24 hours and for three concentrations of these peptides, 10 ng/ml, 100 ng/ml, and 1000 ng/ml. […] At a concentration of 10 ng/ml, TB4 and TA1 maximally stimulated cell proliferation approximately 2-fold and 3-fold over that of the control, respectively.

[2] = Isoelectric point of the peptide; format: physicochemical

Ac-ANKGQAPGEAMKPSFLKEKKEVVERSKEEEGPAKMNLVIEMPKD (Ac-ANKGQAPGEAMKPSFLKEKKEVVERSKEEEGPAKMNLVIEMPKD) [TB4]
cell migration over migration in the presence of media alone [1]: significantly enhanced
migration response compared to three positive controls (VEGF, PDGF, FGF) [1]: heightened responses

Ac-SDAAVDTSSEITTKDLKEKKEVVEEAEN (Ac-SDAAVDTSSEITTKDLKEKKEVVEEAEN) [TA1, may be derived by cleavage of thymosin]
maximal stimulation of cell proliferation over that of the control (endothelial cells): ~3 fold
isoelectric point [2]: 4.1
Cell Number per HPF, Chamber 1 ([1]; 0.1 µg/ml): 38 per HPF
Cell Number per HPF, Chamber 2 ([1]; 0.1 µg/ml): 45 per HPF
Cell Number per HPF, Chamber 3 ([1]; 0.1 µg/ml): 33 per HPF
Cell Number per HPF, Mean ([1]; 0.1 µg/ml): 39 per HPF
cell migration over migration in the presence of media alone [1]: significantly enhanced
migration response compared to three positive controls (VEGF, PDGF, FGF) [1]: heightened responses
Cell Number per HPF, Chamber 1 ([1]; 0.5 µg/ml): 52 per HPF
Cell Number per HPF, Chamber 2 ([1]; 0.5 µg/ml): 53 per HPF
Cell Number per HPF, Chamber 3 ([1]; 0.5 µg/ml): 57 per HPF
Cell Number per HPF, Mean ([1]; 0.5 µg/ml): 54 per HPF
Cell Number per HPF, Chamber 1 ([1]; 1 µg/ml): 64 per HPF
Cell Number per HPF, Chamber 2 ([1]; 1 µg/ml): 69 per HPF
Cell Number per HPF, Chamber 3 ([1]; 1 µg/ml): 43 per HPF
Cell Number per HPF, Mean ([1]; 1 µg/ml): 59 per HPF
Cell Number per HPF, Chamber 1 ([1]; 5 µg/ml): 35 per HPF
Cell Number per HPF, Chamber 2 ([1]; 5 µg/ml): 64 per HPF
Cell Number per HPF, Chamber 3 ([1]; 5 µg/ml): 72 per HPF
Cell Number per HPF, Mean ([1]; 5 µg/ml): 57 per HPF
Cell Number per HPF, Chamber 1 ([1]; 10 µg/ml): 51 per HPF
Cell Number per HPF, Chamber 2 ([1]; 10 µg/ml): 55 per HPF
Cell Number per HPF, Chamber 3 ([1]; 10 µg/ml): 66 per HPF
Cell Number per HPF, Mean ([1]; 10 µg/ml): 57 per HPF
concentration of maximal effect on migration ([1]; dose response): 100 ng/mL
